The target in one experiment is T1, HiBiT-BCL-2 (Homo sapiens, UniProt P10415).
T1 construct: endogenous in cells; host or cells: HeLa (ATCC CCL-2), CRISPR-Cas9 HiBiT knock-in clone
In words: HiBiT degradation assay, HiBiT knock-in BCL-2 HeLa cells. In kind it is cell-based. As to conditions: for Time to degrade 50% of BCL-2: 100 nM compound. How it is done:
The Alt-R CRISPR RNA (crRNA):Alt-R trans-activating crRNA (tracrRNA) duplexes for targeting BCL-xL or BCL-2 were prepared by mixing 0.5 nmol crRNA and 0.5 nmol tracrRNA in 25 μL of Nuclease-Free Duplex Buffer (Integrated DNA Technologies, IDT) by incubation at 95 °C for 5 min and cooling to RT. Single-stranded ultramer DNA oligonucleotides (ssODN) (IDT) were used as the homology directed repair (HDR) donor templates. The sequences of gRNAs and ssODN templates are listed in Supplementary Table 2. Ribonucleoprotein (RNP) complexes with recombinant Streptococcus pyogenes Cas9 protein (IDT) and crRNA:tracrRNA duplex were assembled by incubating 100 pmol of Cas9 and 120 pmol of gRNA for 10–20 min at room temperature. HeLa (2 × 10^5) cells were resuspended in 10 μL of Neon^TM transfection system buffer R from the Neon^TM transfection system 10 mL kit (Thermo Fisher), and the RNP complex along with 100 pmol ssODN template were electroporated into HeLa cells with the Neon^TM transfection system (Thermo Fisher). After electroporation, HeLa cells were transferred to a 12-well plate for culturing. Edited pooled cells were analyzed for HiBiT insertion by assaying for luminescence using Nano-Glo® HiBiT lytic detection system (Cat #N3040, Promega) in a Biotek’s Synergy Neo2 multimode plate reader (Biotek) 48–72 h after electroporation and single clones were selected by serial dilution.
HeLa HiBiT-BCL-xL and HeLa HiBiT-BCL-2 cells (2 × 10^4/well in 80 μL DMEM) were seeded into white 96-well tissue culture plates and incubated overnight at 37 °C, 5% CO2. For dose curve testing, the following day, serial diluted compounds were added into the medium and then plates were incubated at 37 °C, 5% CO2, for 6 h. For time course testing, in the following day, compounds with indicated concentrations were added into the medium at different time points. After treatment, the luminescence signals were measured using Nano-Glo® HiBiT lytic detection system (Cat #N3040, Promega) in a Biotek’s Synergy Neo2 multimode plate reader (Biotek).
A general note: With HiBiT, luminescence reflects the tagged protein that the partner subunit can reach.

A further experiment deals with HeLa cells. Kind of experiment: DIA proteomics in HeLa cells. In kind it is cell-based, human. As to conditions: for Off-target effects (two proteomic analyses): TMT (Jurkat) and DIA (HeLa) proteomics. The source says: Given the somewhat inconclusive nature of the TMT results, we made additional efforts to characterize the on-target and off-target effects of our BCL-xL and BCL-2 dual PROTACs using a different proteomics analysis technique, i.e. the Data-Independent Acquisition (DIA) proteomics approach. This approach can avoid the limitation of TMT-labeling deficiency for some proteins/peptides. Specifically, we conducted DIA proteomics profiling using HeLa cells because these cells are primarily dependent on MCL-1 for survival and thus resistant to apoptosis after BCL-xL and BCL-2 degradation. To our delight, we were able to identify over 7200 proteins, including both BCL-xL and BCL-2 (Supplementary Fig. 10d), using this method.
Cells were lysed in buffer containing 5% SDS/50 mM triethylammonium bicarbonate (TEAB) in the presence of protease and phosphatase inhibitors (Halt; Thermo Scientific) and nuclease (Pierce™ Universal Nuclease for Cell Lysis; Thermo Scientific). Aliquots corresponding to 100 µg protein (EZQ™ Protein Quantitation Kit; Thermo Scientific) were reduced with tris(2-carboxyethyl)phosphine hydrochloride (TCEP), alkylated in the dark with iodoacetamide and applied to S-Traps (mini; Protifi) for tryptic digestion (sequencing grade; Promega) in 50 mM triethylammonium bicarbonate (TEAB). Peptides were eluted from the S-Traps with 0.2% formic acid in 50% aqueous acetonitrile and quantified using Pierce™ Quantitative Fluorometric Peptide Assay (Thermo Scientific). Data-independent acquisition mass spectrometry (DIA-MS) was conducted on a Thermo Scientific Orbitrap Exploris 480 mass spectrometer. […] A pool was made of the three control (DMSO) samples, and 2-µg peptide aliquots were analyzed using gas-phase fractionation and 4-m/z windows (30k resolution for precursor and product ion scans) to create an empirically-corrected DIA chromatogram library[72] by searching against a Prosit-generated predicted spectral library[73] based on the UniProt_Human_ref 9606_20220216 protein sequence database (20,588 sequences; 11,394,277 residues). […]

The results in this text go back to publication PMC10979003, “Development and crystal structures of a potent second-generation dual degrader of BCL-2 and BCL-xL” (Nature Communications, 2024).

T1 sequence (P10415 whole entry): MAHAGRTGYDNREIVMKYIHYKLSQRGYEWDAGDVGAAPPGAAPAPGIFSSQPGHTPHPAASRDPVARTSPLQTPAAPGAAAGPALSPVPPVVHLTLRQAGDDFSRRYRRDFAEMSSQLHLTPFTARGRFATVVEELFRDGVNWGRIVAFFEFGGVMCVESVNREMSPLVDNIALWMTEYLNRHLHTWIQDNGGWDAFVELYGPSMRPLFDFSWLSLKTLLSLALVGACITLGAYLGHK

With `Cc1ncsc1-c1ccc(C(C)NC(=O)C2CC(O)CN2C(=O)C(NC(=O)CCCCCCC(=O)N2CCN(CC3(C)CCC(c4ccc(Cl)cc4)=C(CN4CCN(c5ccc(C(=O)NS(=O)(=O)c6ccc(NC(CCN7CCOCC7)CSc7ccccc7)c(S(=O)(=O)C(F)(F)F)c6)cc5)CC4)C3)CC2)C(C)(C)C)cc1` (stereo not drawn) [753b], the “Time to degrade 50% of BCL-2” value on HiBiT-BCL-2 is reported as above 480 min. The “Off-target effects (two proteomic analyses)” value in the experiment with HeLa cells is given as “limited off-target effects”.
Take `Cc1ncsc1-c1ccc([C@H](C)NC(=O)[C@@H]2C[C@@H](O)CN2C(=O)[C@@H](NC(=O)CN2CCN(CC(=O)N3CCN(C[C@]4(C)CCC(c5ccc(Cl)cc5)=C(CN5CCN(c6ccc(C(=O)NS(=O)(=O)c7ccc(N[C@H](CCN8C[C@@H]9C[C@H]8CO9)CSc8ccccc8)c(S(=O)(=O)C(F)(F)F)c7)cc6)CC5)C4)CC3)CC2)C(C)(C)C)cc1` [WH244]: on HiBiT-BCL-2, the “Time to degrade 50% of BCL-2” value is “about 250 min”. Moreover, the “Potency for inducing degradation of BCL-2 (comparison)” value at HiBiT-BCL-2 (6 h treatment) is on record as “more potent than 753b”. Further, the “Degradation of BCL-xL and BCL-2 by DIA proteomics (comparison)” value with HeLa cells (HeLa cells) is “superior efficacy in the degradation of both proteins”. Also, in the experiment with HeLa cells, the “Off-target effects (two proteomic analyses)” value is on record as “limited off-target effects”.
